US20240390355A1, “IRHOM2 INHIBITORS AND USES THEREOF” (NEW YORK SOCIETY FOR THE RELIEF OF THE RUPTURED AND …, priority 2021, published 2024)

Experiments:
Assay type in all cases: cell-based
[1] = test system: TNFα release from THP-1 cells; assay: Primary screen (Example 1a): LPS-stimulated TNFα release from THP-1 cells, HTRF; conditions: Homo sapiens, 100 ng/mL LPS, 3 h, normalised to 50 μM Batimastat, read-out: Primary Screen XC50 TNFα
Protocol: (§1) Two separate screens to identify novel small molecule inhibitors of iRhom2/ADAM17 activity were developed. […] Therefore, the primary screen for small molecule inhibitors of iRhom2/ADAM17 was a screen for inhibitors that blocked the release of TNFα from LPS-stimulated THP-1 human myeloid cells, a process that depends on iRhom2 and ADAM17. Since the release of TNFα from THP-1 cells can be blocked at many stages of the LPS/TLR4/iRhom2/ADAM17 pathway, a secondary screen was performed for another iRhom2/ADAM17 selective substrate, Kit-ligand 2 (KL-2) (Maretzky T et al. (July 2013), “iRhom2 controls the substrate selectivity of stimulated ADAM17-dependent ectodomain shedding”, PNAS 110(28): 11433-11438) in a different human cell type, human embryonic kidney cells (HEK 293).
THP-1 cells were plated in 384 or 1,536 wells and transferred on the ultra-high throughput screening (uHTS) platform Mark III, and TNFα shedding was initiated by LPS stimulation of THP-1 cells. The extent of released TNFα was detected with the corresponding HTRF antibodies labeled with europium cryptate (donor) and d2 (acceptor). The HTRF signal was generated by proximity of europium cryptate and d2. All detection reagents were purchased from Cisbio. TNFα detection was performed according to the manufacturer's protocol (Product Insert for Cisbio TNFα (h) Kit Part #62HTNFAPEG & 62HTNFAPEH;
7.5 nL compound and controls in DMSO [10 μM in assay; 0.25% DMSO in 3 [μL Assay] were dissolved in 2 μL cell suspension [2.4E6/mL; 4800 cells/well; culture w/o PenStrep], pre-incubated at 37° C., 5% CO2, for 15 min with 1 μL LPS [100 ng/mL in 3 μL assay]. The cells were incubated at 37° C., 5% CO2, for 3 h with 2 μL of the HTRF-mix [1:300 f.c.]. After an incubation at room temperature for 2 h or longer, the HTRF readout was performed. Then data evaluation for normalization against the 50 μM Batimastat control (=100% […]) was applied. As an additional control, 300 nM Batimastat was used to monitor performance of cells and assay sensitivity over time.

[2] = test system: TGFα release from HEK-293 cells; assay: Counter screen (Example 4a): PMA-stimulated TGFα release from HEK-293 cells, AP readout; conditions: Homo sapiens, HEK293, HEK-293 cells expressing TGFα-AP, PMA 100 ng/mL, 2 h, read-out: Counter Screen XC50 TGFα
Protocol: (§2) A tertiary counterscreen was also performed to monitor the release of TGFα, which is a substrate of iRhom1/ADAM17 and iRhom2/ADAM17, so its release should not be blocked by an iRhom2-selective inhibitor (Maretzky T et al. (July 2013), “iRhom2 controls the substrate selectivity of stimulated ADAM17-dependent ectodomain shedding”, PNAS 110(28): 11433-11438; and Li X et al. (May 2015), “iRhoms 1 and 2 are essential upstream regulators of ADAM17-dependent EGFR signaling”, PNAS 112(19): 6080-6085).
(§3) First, expression plasmids for alkaline phosphatase (AP)-fused KL2 and TGFα were designed and generated through gene synthesis followed by subcloning into the pcDNA3.1(+)/Hygro expression vector. […] Subsequently, DNA amplifications were performed to obtain sufficient amounts of the expression vectors. The quality of DNA and gene sequences were confirmed through restriction digest and Sanger sequencing. In parallel, cell culture of THP-1 and HEK-293 cells was initiated. Master and working cell banks were prepared. Both cell lines were scaled up and transfected with the respective constructs by electroporation. During cell culturing, cell density and viability were monitored to ensure optimal conditions for the transfections. After PMA stimulation, AP-coupled KL2 or TGFα were detected by measurement of AP activity in the supernatant. […] In contrast, THP-1 cells turned out to be not a suitable transfection host resulting in a loss of cell viability after transfection. The decision was made to proceed with HEK-293 for both selectivity assays and to establish polyclonal cell lines stably expressing AP-coupled KL2 or TGFα.
(§4) After electroporation, cells were further cultured in presence of selection antibiotics, hygromycin B, to generate stably transfected polyclonal cell pools. For both assays, KL2 and TGFα shedding, the respective selected pool turned out to be suitable. Final assay conditions were determined for the selected pools. For all experiments, batimastat (30 μM) was used as positive control for full inhibition of KL2 or TGFα shedding.
(§5) 60 μL of cells (20,000/well) were added to a sterile 384-well plate. After incubation overnight at 37° C. (5% CO2), 50 μL medium were removed and 20 μL of prediluted compounds were added to the cells. After incubation for 15 min, 20 μL of PMA (100 ng/mL final conc.) were added. The cells were incubated for 2 h at 37° C. (5% CO2). Then, 20 μL of the supernatant was transferred to a fresh plate and 20 μL of pNPP (5 mM final conc.) was added. The AP reaction was performed for 1 h at RT. The reaction was stopped by addition of 20 μL of NaOH (1 M final conc.) and the absorbance of pNP was measured at 405 nm.

[3] = test system: KL2 release from HEK-293 cells; assay: Secondary screen (Example 3a): PMA-stimulated KL2 release from HEK-293 cells, AP readout; conditions: Homo sapiens, HEK293, HEK-293 cells expressing KL2-AP, PMA 500 ng/mL, 2 h, read-out: Secondary Screen XC50 KL2
Protocol: as §1, §3, §4
as §5, with “of cells (40,000/well) were added” for “of cells (20,000/well) were added”, “of PMA (500 ng/mL final” for “of PMA (100 ng/mL final”, “was added. AP reaction” for “was added. The AP reaction”

[4] = test system: TNFα release from THP-1 cells; assay: Primary screen (Example 1b): LPS-stimulated TNFα release from THP-1 cells, overnight pre-incubation, HTRF; conditions: Homo sapiens, overnight with inhibitor, 100 ng/mL LPS, 3 h, normalised to 10 μM Batimastat
Protocol: as §1
THP-1 cells were plated in low volume 384 wells (10,000 cells per well in 12.6 μL RPMI medium) together with inhibitors or 10 μM BB94 and incubated over night. The next day, TNFα shedding was initiated by stimulation of THP-1 cells with 100 ng/mL LPS (1.8 μL of an 800 ng/mL LPS stock) for 3 hrs at 37° C. The extent of released TNFα was detected with the corresponding HTRF antibodies labeled with europium cryptate (donor) and d2 (acceptor). The HTRF signal was generated by proximity of europium cryptate and d2. All detection reagents were purchased from Cisbio. TNFα detection was performed according to the manufacturer's protocol (Product Insert for Cisbio TNFα (h) Kit Part #62HTNFAPEG & 62HTNFAPEH;
Low volume 384 well plates were pre-coated with small molecule library compounds for a final concentration of 20 μM in a 15 μL reaction, or 0.75 μL of 200 μM stock of BB94 in 5% DMSO (final concentration 0.25%). 12.6 μL of cell suspension [8E5/mL; 10,000 cells/well; culture RPMI medium] and pre-incubated at 37° C., 5% CO2, over night. The next day, 1.8 μL of an 800 ng/mL LPS stock was added [final concentration 100 ng/mL in 15 μL assay] and the cells were incubated at 37° C., 5% CO2, for 3 h. Subsequently, 3 μL of the HTRF-mix [used at 1:3 dilution of cisbio HTRF human TNF] was added and the plates were incubated for an additional 2 hrs at 25° C. After an incubation at room temperature for 2 h, the HTRF readout was performed. Then data evaluation for normalization against the 10 μM Batimastat control (=100% […]) was applied.

[5] = test system: TGFα release from HEK-293 cells; assay: Counter screen (Example 4b): PMA-stimulated TGFα release from HEK-293 cells, AP readout; conditions: Homo sapiens, HEK293, HEK-293 cells expressing TGFα-AP, PMA 100 ng/mL, 2 h
Protocol: as §2
(§6) Expression plasmids for alkaline phosphatase (AP)-fused human KL2 and TGFα had been previously designed and generated through gene synthesis followed by subcloning into the pcDNA3.1(+)/Hygro expression vector. […] Subsequently, DNA amplifications were performed to obtain sufficient amounts of the expression vectors. The quality of DNA and gene sequences were confirmed through restriction digest and Sanger sequencing. In parallel, cell culture of HEK-293 cells was initiated. Master and working cell banks were prepared, scaled up and transfected with the respective constructs by electroporation. During cell culturing, cell density and viability were monitored to ensure optimal conditions for the transfections. After PMA stimulation, AP-coupled KL2 or TGFα were detected by measurement of AP activity in the supernatant.
as §4, with “(BB94, 10” for “(30”
(§7) The wells of sterile 384-well flat bottom clear plates for TGF-AP assays were coated with 10 μL of 0.1 mg/mL poly-d-lysine for 3-4 hr at 25° C. or overnight at 4° C., then washed 2× with PBS and patted dry. 60 μL of cells (20,000/well) were added to the sterile 384-well plate and incubated in Optimem (with 2% FCS and 1% Pen-strep) overnight at 37° C. (5% CO2). After incubation overnight, 55 μL medium were removed with a BioTek EL406 and 10 μL of prediluted compounds were added to the cells for a final concentration of 20 μM. After incubation for 15 min, 15 μL of PMA (100 ng/mL final conc.) were added. The cells were incubated for 2 h at 37° C. (5% CO2). Then, the plates were centrifuged for 5 min at 1000 rpm and 12 μL of the supernatant was transferred to a fresh 384 well plate. 12 μL of pNPP p-nitrophenyl phosphate (final 1 M pNPP) was added. AP reaction was performed for 1 h at 37° C. The reaction was stopped by addition of 12 μL of NaOH (1 M final conc.), the plates were centrifuged to remove air bubbles and the absorbance of pNP was measured at 405 nm.

[6] = test system: KL2 release from HEK-293 cells; assay: Secondary screen (Example 3b): PMA-stimulated KL2 release from HEK-293 cells, AP readout; conditions: Homo sapiens, HEK293, HEK-293 cells expressing KL2-AP, PMA 100 ng/mL, 2 h, read-out: Secondary Screen IC50 KitL2
Protocol: as §1, §6
as §4, with “(BB94, 10” for “(30”
as §7, with “for KL2-AP” for “for TGF-AP”, “cells (40,000/well)” for “cells (20,000/well)”, “and 3” for “and 12”, “well plate and 9 μL of AP Balance Buffer was added per well.” for “well plate.”

| Compound | IC50 [1] [µM] | IC50 [2] [µM] | IC50 [3] [µM] | IC50 [4] [µM] | IC50 [5] [µM] | IC50 [6] [µM] |
| --- | --- | --- | --- | --- | --- | --- |
| COc1ccccc1-c1c(-c2ccccc2C)ncn1C1CC(C)(C)N(C)C(C)(C)C1 [Compound 39] | 41.5 | > 128 | > 128 |  |  |  |
| CC(C)c1nccc(-c2c(-c3ccccc3)ncn2C[C@H]2CCCN2)n1 [Compound 40] | 21 | > 128 | > 128 |  |  |  |
| CC(C)c1nccc(-c2c(-c3ccccc3)ncn2C[C@H]2CCCO2)n1 [Compound 41] | 11.6 | > 128 | > 128 |  |  |  |
| Cc1nc[nH]c1-c1nccn1-c1ccc2c(c1)CCC2 [Compound 42] | 31 | > 128 | > 128 |  |  |  |
| O=C(c1c(Cl)cccc1Cl)N1CCC(Cc2ccc3c(c2)OCO3)CC1 [Compound 43] |  |  |  | 3.97 | > 40 | 35.2 |
| O=C(NCCc1cccnc1)c1ccc(-c2cc(-c3ccc(N4CCCCC4)cc3)n[nH]2)cc1 [Compound 44] |  |  |  | 10.8 | > 40 | > 40 |
| Cc1ccsc1C1Nc2ccc3ccccc3c2C2=C1C(=O)CCC2 (stereo not drawn) [Compound 45] |  |  |  | > 32 | > 40 | 28 |
| O=C1Nc2ccccc2/C1=N\Nc1nc(Nc2ccccc2)nc(Nc2ccccc2)n1 [Compound 46] |  |  |  | 2.72 | > 40 | 11.1 |
| O=C(NC1CCCCCCC1)C1CCCN(c2nc3ccc(Br)cc3[nH]2)C1 (stereo not drawn) [Compound 47] |  |  |  | 2.41 | > 40 | 5.52 |
| Cc1cc(NCCCn2ccnc2)n2ncc(-c3ccc(Cl)cc3)c2n1 [Compound 48] |  |  |  | 13.2 | > 40 | > 40 |
| Cc1cc(C)c2nc(N3CCNCC3)sc2c1 [Compound 49] |  |  |  | 13.2 | > 40 | > 40 |
| Cc1ccccc1Nc1nc(NCCCO)nc2c1cnn2-c1ccccc1 [Compound 50] |  |  |  | 10.9 | > 40 | 16.1 |
